13 molecules from patent publication US20260285853A1, “COMPOUNDS AND METHODS FOR MODULATING SPLICING” (REMIX THERAPEUTICS INC., priority 2023, published 2026) can be followed below.

A value given as a limit tells only on which side of the number the result lay.

Type in all cases: cell-based
The test system of assay [1] is MYB mRNA. The assay is described as follows: Splicing RT-qPCR assay (THP), Table 2A. The note with it: Table 2A, THP; for AC50: MYB alternative junction (AJ) mRNA, read-out: MYB AJ (AC50, increase in alternative junction mRNA); for IC50: MYB canonical junction (CJ) mRNA, read-out: MYB CJ (IC50, decrease in canonical junction mRNA). On the technique in general: In qPCR the cycle at which signal appears reflects the starting amount.

In assay [2] the test system is SH-SY5Y (human neuroblastoma) cells. The assay is described as follows: Cell viability, Cell Titer Glo 2.0 assay. To be noted: read-out: Viability SHSY5Y.3 GI50. Summed up: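 SH-SY5Y cells were exposed to serially diluted compounds in IMDM with 10% FBS and 0.1% DMSO for 72 hours at 37° C., 5% CO2. Viability was measured by CellTiter-Glo 2.0 luminescence, with medium-only wells as blank.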
(Cellular ATP, detected with luciferase, serves as a proxy for viable cell number.)

For assay [3], the system named is HTT mRNA. The assay is described as follows: Splicing RT-qPCR assay (THP), Table 2A. The note with it: Table 2A, THP; for AC50: HTT alternative junction (AJ) mRNA, read-out: HTT AJ (AC50, increase in alternative junction mRNA); for IC50: HTT canonical junction (CJ) mRNA, read-out: HTT CJ (IC50, decrease in canonical junction mRNA).
Assay [4] has as its system HTT mRNA. In words: Gene panel canonical junction qPCR assay, decrease in CJ mRNA, Table 3. The note with it: decrease in CJ mRNA levels, canonical junction qPCR, gene panel. Summed up: (§1)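 Canonical exon-junction (CJ) transcript measured by 5′ nuclease RT-qPCR, normalized to GAPDH, GUSB or PPIA and to DMSO control (2^(−ΔΔCt)). A673 or K562 cells treated 24 h at 37° C with an 11-point 3-fold dilution series, top 10 uM, DMSO ≤0.25%. IC50 from 4-parameter logistic fit of percentage CJ decrease.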

Assay [5] has as its system MYB mRNA. The description is as above. The note with it: decrease in CJ mRNA levels, canonical junction qPCR, gene panel. In a few lines:
as §1

Turning to `COc1nc2c(C(=O)Nc3ccc(=O)n(C)c3)ccc(N3C[C@H](C)N[C@@H](C)C3)c2s1` [Compound 730, 7-((3S,5S)-3,5-dimethylpiperazin-1-yl)-2-methoxy-N-(1-methyl-6-oxo-1,6-dihydropyridin-3-yl)benzo[d]thiazole-4-carboxamide 2,2,2-trifluoroacetate], the AC50 with MYB mRNA [1] was 0.1 to 1 µM; with HTT mRNA [3], above 10 µM. Besides, the half-inhibitory concentration (IC50) is 0.1 to 1 µM with MYB mRNA [1], above 10 µM in the assay on HTT mRNA [3], above 10 µM in the assay on HTT mRNA [4] and 0.1 to 1 µM in the assay with MYB mRNA [5]. In addition, the GI50 in assay [2] was 1 to 10 µM.

On to `COc1nc2c(C(=O)Nc3cc(CNS(C)(=O)=O)c4nn(C)cc4c3)ccc(N3C[C@H](C)N[C@@H](C)C3)c2s1` [Compound 731, 7-((3S,5S)-3,5-dimethylpiperazin-1-yl)-2-methoxy-N-(2-methyl-7-(methylsulfonamidomethyl)-2H-indazol-5-yl)benzo[d]thiazole-4-carboxamide 2,2,2-trifluoroacetate], for which the figures for the AC50 with MYB mRNA [1] and with HTT mRNA [3] were 0.1 to 1 µM and above 10 µM, respectively. In addition, the concentration for half-maximal inhibition (IC50) in the assay with MYB mRNA [1] is 0.1 to 1 µM; with HTT mRNA [3], above 10 µM; with HTT mRNA [4], above 10 µM; in the assay with MYB mRNA [5], 0.1 to 1 µM. Further, in assay [2], the GI50 lay in the range of 1 to 10 µM.

`COc1nc2c(C(=O)Nc3cc(F)c4nn(C)cc4c3)ccc(N3CCN[C@@H](C(C)C)C3)c2s1` [Compound 732]: the AC50 in the assay with MYB mRNA [1] was below 0.1 µM; with HTT mRNA [3], above 10 µM. In addition, the IC50 with MYB mRNA [1] is below 0.1 µM; with HTT mRNA [3], above 10 µM; with HTT mRNA [4] it was above 10 µM; in the assay with MYB mRNA [5], below 0.1 µM. Moreover, the GI50 in assay [2] lay in the range of 0.1 to 1 µM.

For the molecule `Cc1cn2cc(NC(=O)c3ccc(N4CCC(NC5CC5)CC4)c4cn(C)nc34)nc2c(Cn2ccc(=O)[nH]c2=O)n1` [Compound 733, 4-(4-(cyclopropylamino)piperidin-1-yl)-N-(8-((2,4-dioxo-3,4-dihydropyrimidin-1(2H)-yl)methyl)-6-methylimidazo[1,2-a]pyrazin-2-yl)-2-methyl-2H-indazole-7-carboxamide 2,2,2-trifluoroacetate], the AC50 in the assay with MYB mRNA [1] and with HTT mRNA [3] was above 10 µM each time. Also, the IC50 in the assay with MYB mRNA [1], in the assay with HTT mRNA [3], in the assay on HTT mRNA [4] and in the assay with MYB mRNA [5] was above 10 µM in each case. Besides, in assay [2], the GI50 fell in the range of 1 to 10 µM.

Turning to `Cc1cn2cc(NC(=O)c3ccc(N4CCC(NC5CC5)CC4)c4cn(C)nc34)nc2c(CN)n1` [Compound 734, N-(8-(aminomethyl)-6-methylimidazo[1,2-a]pyrazin-2-yl)-4-(4-(cyclopropylamino)piperidin-1-yl)-2-methyl-2H-indazole-7-carboxamide bis(2,2,2-trifluoroacetate)], the AC50 in the assay with MYB mRNA [1] and in the assay on HTT mRNA [3] was above 10 µM throughout. Besides, the IC50 with MYB mRNA [1], in the assay on HTT mRNA [3], in the assay with HTT mRNA [4] and with MYB mRNA [5] was above 10 µM each time. Besides, the GI50 in assay [2] was above 10 µM.

`Cn1cc2cc(NC(=O)c3ccc(N4CCC(NC5CC5)CC4)c4cn(C)nc34)cc(CNS(C)(=O)=O)c2n1` [Compound 735, 4-(4-(cyclopropylamino)piperidin-1-yl)-2-methyl-N-(2-methyl-7-(methylsulfonamidomethyl)-2H-indazol-5-yl)-2H-indazole-7-carboxamide 2,2,2-trifluoroacetate]: the values for the AC50 in the assay on MYB mRNA [1] and with HTT mRNA [3] were 1 to 10 µM and above 10 µM, respectively. Besides, the IC50 was 1 to 10 µM in the assay with MYB mRNA [1], above 10 µM with HTT mRNA [3], above 10 µM in the assay on HTT mRNA [4] and 1 to 10 µM with MYB mRNA [5]. Further, the GI50 in assay [2] was above 10 µM.

Take `CCNC1CCN(c2ccc(C(=O)Nc3cc4cn(C)nc4cc3OC)c3nn(C)cc23)C(C)C1` (stereo not shown) [Compound 736, 4-(4-(ethylamino)-2-methylpiperidin-1-yl)-N-(6-methoxy-2-methyl-2H-indazol-5-yl)-2-methyl-2H-indazole-7-carboxamide 2,2,2-trifluoroacetate]: the AC50 in the assay on MYB mRNA [1] is 1 to 10 µM; in the assay with HTT mRNA [3], above 10 µM. Besides, the IC50 in the assay on MYB mRNA [1], with HTT mRNA [3], in the assay on HTT mRNA [4] and in the assay on MYB mRNA [5] was above 10 µM throughout. Also, the GI50 in assay [2] was in the range of 1 to 10 µM.

With `CCNC1CCN(c2ccc(C(=O)Nc3cc4cn(C)nc4cc3OC)c3nn(C)cc23)C(C)(C)C1` (stereo not shown) [Compound 737, 4-[4-(ethylamino)-2,2-dimethyl-1-piperidyl]-N-(6-methoxy-2-methyl-indazol-5-yl)-2-methyl-indazole-7-carboxamide], the AC50 in the assay with MYB mRNA [1] and in the assay with HTT mRNA [3] was above 10 µM throughout. Also, the IC50 in the assay with MYB mRNA [1], in the assay with HTT mRNA [3], with HTT mRNA [4] and in the assay with MYB mRNA [5] was above 10 µM throughout. Besides, the GI50 in assay [2] fell in the range of 1 to 10 µM.

On to `COc1nc2c(C(=O)Nc3cc(C)c4nn(C)cc4n3)ccc(N3C[C@H](C)N[C@@H](C)C3)c2s1` [Compound 738, N-(2,7-dimethyl-2H-pyrazolo[4,3-b]pyridin-5-yl)-7-((3S,5S)-3,5-dimethylpiperazin-1-yl)-2-methoxybenzo[d]thiazole-4-carboxamide 2,2,2-trifluoroacetate], for which the concentration at half-maximal activity (AC50) with MYB mRNA [1] is below 0.1 µM; with HTT mRNA [3] it was above 10 µM. Besides, the half-maximal inhibitory concentration (IC50) was below 0.1 µM with MYB mRNA [1], above 10 µM with HTT mRNA [3], above 10 µM with HTT mRNA [4] and below 0.1 µM with MYB mRNA [5]. Further, in assay [2], the GI50 was 0.1 to 1 µM.

Turning to `COc1nc2c(C(=O)Nc3cc(C)c4nc(C)cn4n3)ccc(N3C[C@H](C)N[C@@H](C)C3)c2s1` [Compound 739, N-(2,8-dimethylimidazo[1,2-b]pyridazin-6-yl)-7-[(3S,5S)-3,5-dimethylpiperazin-1-yl]-2-methoxy-1,3-benzothiazole-4-carboxamide], the concentration at half-maximal activity (AC50) in the assay with MYB mRNA [1] was below 0.1 µM; in the assay on HTT mRNA [3], 0.1 to 1 µM. Moreover, the IC50 is below 0.1 µM in the assay on MYB mRNA [1], 1 to 10 µM in the assay with HTT mRNA [3], 1 to 10 µM in the assay with HTT mRNA [4] and below 0.1 µM with MYB mRNA [5]. Moreover, the GI50 in assay [2] is 0.1 to 1 µM.

As for `COc1nc2c(C(=O)Nc3cccc4c3nnn4C)ccc(N3C[C@H](C)N[C@@H](C)C3)c2s1` [Compound 740, 7-[(3S,5S)-3,5-dimethylpiperazin-1-yl]-2-methoxy-N-(1-methylbenzotriazol-4-yl)-1,3-benzothiazole-4-carboxamide], the AC50 with MYB mRNA [1] and in the assay on HTT mRNA [3] was above 10 µM in each case. For the same molecule, the IC50 in the assay on MYB mRNA [1] is above 10 µM; with HTT mRNA [3], 1 to 10 µM; with HTT mRNA [4] it was 1 to 10 µM; in the assay on MYB mRNA [5], above 10 µM. The GI50 in assay [2] was 1 to 10 µM.

As for `COc1nc2c(C(=O)Nc3cc(F)c4nn(C)cc4c3)ccc(N3C[C@H](C)NC4(CC4)C3)c2s1` [Compound 741], the AC50 in the assay on MYB mRNA [1] is below 0.1 µM; in the assay on HTT mRNA [3], 1 to 10 µM. Besides, the IC50 in the assay with MYB mRNA [1] was below 0.1 µM; in the assay with HTT mRNA [3], above 10 µM; with HTT mRNA [4], above 10 µM; with MYB mRNA [5] it was below 0.1 µM. Further, the GI50 in assay [2] is below 0.1 µM.

On to `COc1nc2c(C(=O)Nc3cc(F)c4nn(C)cc4c3)ccc(N3CCN[C@@H](C(C)(C)C)C3)c2s1` [Compound 742, 7-[(3S)-3-tert-butylpiperazin-1-yl]-N-(7-fluoro-2-methyl-indazol-5-yl)-2-methoxy-1,3-benzothiazole-4-carboxamide], for which the half-maximal activity concentration (AC50) in the assay with MYB mRNA [1] was 0.1 to 1 µM; in the assay on HTT mRNA [3], above 10 µM. In addition, the IC50 is 0.1 to 1 µM in the assay on MYB mRNA [1], above 10 µM in the assay with HTT mRNA [3], above 10 µM with HTT mRNA [4] and 0.1 to 1 µM with MYB mRNA [5]. Also, in assay [2], the concentration for 50% growth inhibition (GI50) lay in the range of 1 to 10 µM.

In general, AC50 refers to the midpoint of the concentration-response curve, whichever way the signal moves. A word on the IC50: it is the concentration that inhibits the measured activity by half. The term GI50 denotes the concentration giving 50% growth inhibition.
